{
  "source": "the OligoGym collection",
  "biological_target": "SOD1",
  "details": "ASO",
  "note": "Where “and” joins values, the source holds several entries; their conditions need not be identical. Equal values may be shown once. After the bases stand the sugars from the 5' end (letter, count) and the backbone: PS all phosphorothioate, else s phosphorothioate and o phosphodiester by linkage. Methylation of C is not given here. e = 2'-O-(2-methoxyethyl) (MOE); k = constrained ethyl (cEt); d = 2'-deoxy (DNA)",
  "data": [
    {"sequence": "CACAGAATCTTCAATAGACA (sugars e5 d10 e5, PS)", "values": [
      {"measurement": "target mRNA inhibition", "setting": "HepG2, 5 µM", "result": "10% and 14%"}
    ]},
    {"sequence": "CACATTGCCCAAGTCTCCAA (sugars e5 d10 e5, PS)", "values": [
      {"measurement": "target mRNA inhibition", "setting": "HepG2, 5 µM", "result": "36% and 19%"}
    ]},
    {"sequence": "CACTACAGGTACTTTAA (sugars e2 k2 d8 k2 e3, PS)", "values": [
      {"measurement": "target mRNA inhibition", "setting": "HepG2, 5 µM", "result": 27, "unit": "%"}
    ]},
    {"sequence": "CACTTTTAAGATTACAG (sugars e2 k2 d9 k2 e2, PS)", "values": [
      {"measurement": "target mRNA inhibition", "setting": "HepG2, 5 µM", "result": 49, "unit": "%"}
    ]},
    {"sequence": "CAGCAGTCACATTGCCC (sugars e3 k2 d7 k2 e3, PS)", "values": [
      {"measurement": "target mRNA inhibition", "setting": "HepG2, 3 µM", "result": 7, "unit": "%"}
    ]},
    {"sequence": "CAGCTAGCAGGATAACA (sugars e3 k2 d7 k2 e3, PS)", "values": [
      {"measurement": "target mRNA inhibition", "setting": "HepG2, 3 µM", "result": 21, "unit": "%"}
    ]},
    {"sequence": "CAGGATACATTTCTACA (sugars e2 k2 d8 k2 e3, PS)", "values": [
      {"measurement": "target mRNA inhibition", "setting": "HepG2, 0.1875 µM", "result": 30, "unit": "%"},
      {"measurement": "target mRNA inhibition", "setting": "HepG2, 0.75 µM", "result": 62, "unit": "%"},
      {"measurement": "target mRNA inhibition", "setting": "HepG2, 3 µM", "result": 81, "unit": "%"},
      {"measurement": "target mRNA inhibition", "setting": "HepG2, 4 µM", "result": 79, "unit": "%"},
      {"measurement": "target mRNA inhibition", "setting": "HepG2, 12 µM", "result": 94, "unit": "%"}
    ]},
    {"sequence": "CAGGATACATTTCTACA (sugars e2 k2 d9 k2 e2, PS)", "values": [
      {"measurement": "target mRNA inhibition", "setting": "HepG2, 0.1875 µM", "result": 38, "unit": "%"},
      {"measurement": "target mRNA inhibition", "setting": "HepG2, 0.75 µM", "result": 71, "unit": "%"},
      {"measurement": "target mRNA inhibition", "setting": "HepG2, 3 µM", "result": 89, "unit": "%"},
      {"measurement": "target mRNA inhibition", "setting": "HepG2, 4 µM", "result": "85% and 86%"},
      {"measurement": "target mRNA inhibition", "setting": "HepG2, 12 µM", "result": "91% and 97%"}
    ]},
    {"sequence": "CAGGATACATTTCTACAGCT (sugars e5 d10 e5, linkages sososssssssssssosos)", "values": [
      {"measurement": "target mRNA inhibition", "setting": "A431, 0.062 µM", "result": 20, "unit": "%"},
      {"measurement": "target mRNA inhibition", "setting": "A431, 0.185 µM", "result": 29, "unit": "%"},
      {"measurement": "target mRNA inhibition", "setting": "A431, 0.556 µM", "result": 49, "unit": "%"},
      {"measurement": "target mRNA inhibition", "setting": "A431, 1.667 µM", "result": 69, "unit": "%"},
      {"measurement": "target mRNA inhibition", "setting": "A431, 5 µM", "result": 76, "unit": "%"},
      {"measurement": "target mRNA inhibition", "setting": "A431, 15 µM", "result": 83, "unit": "%"},
      {"measurement": "target mRNA inhibition", "setting": "SH-SY5Y, 0.062 µM", "result": 0, "unit": "%"},
      {"measurement": "target mRNA inhibition", "setting": "SH-SY5Y, 0.185 µM", "result": 17, "unit": "%"},
      {"measurement": "target mRNA inhibition", "setting": "SH-SY5Y, 0.556 µM", "result": 39, "unit": "%"},
      {"measurement": "target mRNA inhibition", "setting": "SH-SY5Y, 1.667 µM", "result": 59, "unit": "%"},
      {"measurement": "target mRNA inhibition", "setting": "SH-SY5Y, 5 µM", "result": 85, "unit": "%"},
      {"measurement": "target mRNA inhibition", "setting": "SH-SY5Y, 15 µM", "result": 82, "unit": "%"}
    ]},
    {"sequence": "CAGGGTTTTTATTCACA (sugars e3 k2 d7 k2 e3, PS)", "values": [
      {"measurement": "target mRNA inhibition", "setting": "HepG2, 3 µM", "result": 17, "unit": "%"}
    ]},
    {"sequence": "CAGTCACATTGCCCAAGTCT (sugars e5 d10 e5, PS)", "values": [
      {"measurement": "target mRNA inhibition", "setting": "HepG2, 5 µM", "result": "40% and 27%"}
    ]},
    {"sequence": "CAGTGTTTAATGTTTAT (sugars e2 k2 d8 k2 e3, PS)", "values": [
      {"measurement": "target mRNA inhibition", "setting": "HepG2, 0.1875 µM", "result": 30, "unit": "%"},
      {"measurement": "target mRNA inhibition", "setting": "HepG2, 0.75 µM", "result": 61, "unit": "%"},
      {"measurement": "target mRNA inhibition", "setting": "HepG2, 3 µM", "result": 79, "unit": "%"},
      {"measurement": "target mRNA inhibition", "setting": "HepG2, 4 µM", "result": 75, "unit": "%"},
      {"measurement": "target mRNA inhibition", "setting": "HepG2, 5 µM", "result": 77, "unit": "%"},
      {"measurement": "target mRNA inhibition", "setting": "HepG2, 12 µM", "result": "81% and 87%"}
    ]},
    {"sequence": "CAGTTTCTCACTACAGGTAC (sugars e5 d10 e5, PS)", "values": [
      {"measurement": "target mRNA inhibition", "setting": "HepG2, 5 µM", "result": 25, "unit": "%"}
    ]},
    {"sequence": "CATAATAAGTGCCATAC (sugars e2 k2 d8 k2 e3, PS)", "values": [
      {"measurement": "target mRNA inhibition", "setting": "HepG2, 5 µM", "result": 32, "unit": "%"}
    ]},
    {"sequence": "CATCCAAGGGAATGTTT (sugars e3 k2 d7 k2 e3, PS)", "values": [
      {"measurement": "target mRNA inhibition", "setting": "HepG2, 3 µM", "result": 16, "unit": "%"}
    ]},
    {"sequence": "CATCTGCTTTTTCATGG (sugars e3 k2 d7 k2 e3, PS)", "values": [
      {"measurement": "target mRNA inhibition", "setting": "HepG2, 3 µM", "result": 70, "unit": "%"}
    ]},
    {"sequence": "CATCTGTGATTTAAGTC (sugars e2 k2 d8 k2 e3, PS)", "values": [
      {"measurement": "target mRNA inhibition", "setting": "HepG2, 5 µM", "result": 42, "unit": "%"}
    ]},
    {"sequence": "CATCTTTGTCAGCAGTCACA (sugars e5 d10 e5, PS)", "values": [
      {"measurement": "target mRNA inhibition", "setting": "HepG2, 5 µM", "result": "34% and 13%"}
    ]},
    {"sequence": "CATTACTTTCCTTCTGC (sugars e3 k2 d7 k2 e3, PS)", "values": [
      {"measurement": "target mRNA inhibition", "setting": "HepG2, 3 µM", "result": 28, "unit": "%"}
    ]},
    {"sequence": "CCAACATGCCTCTCTTC (sugars e3 k2 d7 k2 e3, PS)", "values": [
      {"measurement": "target mRNA inhibition", "setting": "HepG2, 3 µM", "result": 0, "unit": "%"}
    ]},
    {"sequence": "CCAAGGGAATGTTTATT (sugars e2 k2 d9 k2 e2, PS)", "values": [
      {"measurement": "target mRNA inhibition", "setting": "HepG2, 4 µM", "result": 52, "unit": "%"}
    ]},
    {"sequence": "CCAAGTGATCATAAATCAGT (sugars e5 d10 e5, PS)", "values": [
      {"measurement": "target mRNA inhibition", "setting": "HepG2, 5 µM", "result": 39, "unit": "%"}
    ]},
    {"sequence": "CCAATTACACCACAAGC (sugars e2 k2 d9 k2 e2, PS)", "values": [
      {"measurement": "target mRNA inhibition", "setting": "HepG2, 0.1875 µM", "result": 7, "unit": "%"},
      {"measurement": "target mRNA inhibition", "setting": "HepG2, 0.75 µM", "result": 32, "unit": "%"},
      {"measurement": "target mRNA inhibition", "setting": "HepG2, 3 µM", "result": 77, "unit": "%"},
      {"measurement": "target mRNA inhibition", "setting": "HepG2, 4 µM", "result": 73, "unit": "%"},
      {"measurement": "target mRNA inhibition", "setting": "HepG2, 12 µM", "result": 96, "unit": "%"}
    ]},
    {"sequence": "CCAGCACCCCGTCTCCGCGA (sugars e5 d10 e5, PS)", "values": [
      {"measurement": "target mRNA inhibition", "setting": "HepG2, 4 µM", "result": 38, "unit": "%"}
    ]},
    {"sequence": "CCATAACTCGCTAGGCCACG (sugars e5 d10 e5, PS)", "values": [
      {"measurement": "target mRNA inhibition", "setting": "HepG2, 4 µM", "result": 22, "unit": "%"}
    ]},
    {"sequence": "CCATACAGGGTTTTTAT (sugars e3 k2 d7 k2 e3, PS)", "values": [
      {"measurement": "target mRNA inhibition", "setting": "HepG2, 3 µM", "result": 1, "unit": "%"}
    ]},
    {"sequence": "CCATCTGTGATTTAAGT (sugars e2 k2 d8 k2 e3, PS)", "values": [
      {"measurement": "target mRNA inhibition", "setting": "HepG2, 5 µM", "result": 46, "unit": "%"}
    ]},
    {"sequence": "CCATCTGTGATTTAAGT (sugars e2 k2 d9 k2 e2, PS)", "values": [
      {"measurement": "target mRNA inhibition", "setting": "HepG2, 5 µM", "result": 47, "unit": "%"}
    ]},
    {"sequence": "CCATTACTTTCCTTCTG (sugars e3 k2 d7 k2 e3, PS)", "values": [
      {"measurement": "target mRNA inhibition", "setting": "HepG2, 3 µM", "result": 37, "unit": "%"}
    ]},
    {"sequence": "CCCACCGTGTTTTCTGGATA (sugars e5 d10 e5, PS)", "values": [
      {"measurement": "target mRNA inhibition", "setting": "HepG2, 5 µM", "result": "46% and 40%"}
    ]},
    {"sequence": "CCCACTCTGGCCCCAAA (sugars e3 k2 d7 k2 e3, PS)", "values": [
      {"measurement": "target mRNA inhibition", "setting": "HepG2, 3 µM", "result": 15, "unit": "%"}
    ]},
    {"sequence": "CCCATCTGTGATTTAAG (sugars e2 k2 d9 k2 e2, PS)", "values": [
      {"measurement": "target mRNA inhibition", "setting": "HepG2, 5 µM", "result": 49, "unit": "%"}
    ]}
  ]
}
